Measurements as given in patent US20240018123A1, “COMPOUND FOR INHIBITING OR DISINTEGRATING ANDROGEN RECEPTOR, AND PHARMACEUTICAL USE THEREOF” (KOREA RESEARCH INSTITUTE OF CHEMICAL TECHNOLOGY, priority 2020, published 2024).

Assays:
Androgen receptor (AR) = biological target: T1, Androgen receptor (AR) (Homo sapiens, UniProt P10275, T878A); test: Assessment of AR proteolytic activity (Western blotting of LNCap cell lysates); format: cell-based; conditions: 24 hours of treatment, Western blotting quantified with Image J
T1 construct: 5.5×10^5 LNCap cells were injected into each well of a 6-well plate; endogenous in cells; host or cells: LNCaP
T1 sequence (P10275 1-920 T878A): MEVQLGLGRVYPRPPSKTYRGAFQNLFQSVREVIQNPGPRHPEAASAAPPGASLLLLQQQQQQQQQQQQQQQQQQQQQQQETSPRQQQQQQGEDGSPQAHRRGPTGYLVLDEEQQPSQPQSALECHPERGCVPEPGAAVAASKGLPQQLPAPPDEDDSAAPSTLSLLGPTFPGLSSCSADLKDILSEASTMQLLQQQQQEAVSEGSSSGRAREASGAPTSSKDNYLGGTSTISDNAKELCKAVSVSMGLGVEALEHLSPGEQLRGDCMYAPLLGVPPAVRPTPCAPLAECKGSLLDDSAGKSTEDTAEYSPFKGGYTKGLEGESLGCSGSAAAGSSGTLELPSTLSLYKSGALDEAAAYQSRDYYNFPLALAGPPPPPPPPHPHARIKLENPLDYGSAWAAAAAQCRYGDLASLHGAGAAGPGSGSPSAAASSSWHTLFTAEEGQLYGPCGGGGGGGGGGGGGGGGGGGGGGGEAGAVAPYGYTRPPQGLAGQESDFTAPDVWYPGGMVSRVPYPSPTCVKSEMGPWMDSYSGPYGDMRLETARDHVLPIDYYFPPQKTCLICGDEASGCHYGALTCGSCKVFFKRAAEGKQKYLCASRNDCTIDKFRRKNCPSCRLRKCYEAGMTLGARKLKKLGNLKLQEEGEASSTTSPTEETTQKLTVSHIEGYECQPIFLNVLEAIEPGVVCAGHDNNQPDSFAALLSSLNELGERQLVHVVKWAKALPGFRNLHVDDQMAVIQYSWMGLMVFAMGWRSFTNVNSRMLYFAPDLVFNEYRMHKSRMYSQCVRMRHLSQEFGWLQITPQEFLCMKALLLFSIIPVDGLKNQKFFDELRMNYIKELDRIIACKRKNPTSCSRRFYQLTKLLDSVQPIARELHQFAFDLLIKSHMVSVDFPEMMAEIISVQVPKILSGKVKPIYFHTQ
Method in brief: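 LNCap cells seeded at 5.5×10^5 per well and treated with compound for 24 hours. Lysates prepared in RIPA buffer (pH 7.5, with protease inhibitors). AR protein levels assessed by Western blot with densitometric quantification.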

Structure (SMILES)	CC50 (LNCaP cells)	Degradation (1 μM treated in LNCaP, % AR remaining) (Androgen receptor (AR))	CC50 (VCaP cells)
CC1(C)C(NC(=O)c2ccc(OCCOCCOCCOCCOCCOCCCCNc3ccc4nnn(C5CCC(=O)NC5=O)c(=O)c4c3)cc2)C(C)(C)C1Oc1ccc(C#N)c(Cl)c1 (stereo not shown) [Example 17, N-((1r,3r)-3-(3-chloro-4-cyanophenoxy)-2,2,4,4-tetramethylcyclobutyl)-4-((19-((3-(2,6-dioxopiperidin-3-yl)-4-oxo-3,4-dihydrobenzo[d][1,2,3]triazin-6-yl)amino)-3,6,9,12,15-pentaoxanonadecyl)oxy)benzamide]	835 nM	6.7%	–
CC1(C)[C@H](NC(=O)c2ccc(N3CCN(CC4CCN(c5cccc6nnn(C7CCC(=O)NC7=O)c(=O)c56)CC4)CC3)cc2)C(C)(C)[C@H]1Oc1ccc(C#N)c(Cl)c1 (stereo partly shown) [Example 7, N-((1r,3r)-3-(3-chloro-4-cyanophenoxy)-2,2,4,4-tetramethylcyclobutyl)-4-(4-((1-(3-(2,6-dioxopiperidin-3-yl)-4-oxo-3,4-dihydrobenzo[d][1,2,3]triazin-5-yl)piperidin-4-yl)methyl)piperazin-1-yl)benzamide]	902 nM	24.3%	–
CC1(C)[C@H](NC(=O)c2ccc(N3CCN(CCC4CCN(C(=O)C5CN(c6ccc7nnn(C8CCC(=O)NC8=O)c(=O)c7c6)C5)CC4)CC3)cc2)C(C)(C)[C@H]1Oc1ccc(C#N)c(Cl)c1 (stereo partly shown) [Example 27, N-((1r,3r)-3-(3-chloro-4-cyanophenoxy)-2,2,4,4-tetramethylcyclobutyl)-4-(4-(2-(1-(1-(3-(2,6-dioxopiperidin-3-yl)-4-oxo-3,4-dihydrobenzo[d][1,2,3]triazin-6-yl)azetidine-3-carbonyl)piperidin-4-yl)ethyl)piperazin-1-yl)benzamide]	552 nM	14%	37.1 nM
CC1(C)[C@H](NC(=O)c2ccc(N3CCN(CC4CCN(C(=O)CNc5ccc6nnn(C7CCC(=O)NC7=O)c(=O)c6c5)CC4)CC3)cc2)C(C)(C)[C@H]1Oc1ccc(C#N)c(Cl)c1 (stereo partly shown) [Example 9, N-((1r,3r)-3-(3-chloro-4-cyanophenoxy)-2,2,4,4-tetramethylcyclobutyl)-4-(4-((1-((3-(2,6-dioxopiperidin-3-yl)-4-oxo-3,4-dihydrobenzo[d][1,2,3]triazin-6-yl)glycyl)piperidin-4-yl)methyl)piperazin-1-yl)benzamide]	117 nM	39.9%	–
CC1(C)[C@H](NC(=O)c2ccc(N3CCN(CC4CCN(c5ccc6c(=O)n(C7CCC(=O)NC7=O)nnc6c5)CC4)CC3)cc2)C(C)(C)[C@H]1Oc1ccc(C#N)c(Cl)c1 (stereo partly shown) [Example 12, N-((1r,3r)-3-(3-chloro-4-cyanophenoxy)-2,2,4,4-tetramethylcyclobutyl)-4-(4-((1-(3-(2,6-dioxopiperidin-3-yl)-4-oxo-3,4-dihydrobenzo[d][1,2,3]triazin-7-yl)piperidin-4-yl)methyl)piperazin-1-yl)benzamide]	1310 nM	7%	–
CC1(C)C(NC(=O)c2ccc(OCCOCCOCCOCCOCCOCCCCNC(=O)CNc3cccc4nnn(C5CCC(=O)NC5=O)c(=O)c34)cc2)C(C)(C)C1Oc1ccc(C#N)c(Cl)c1 (stereo not shown) [Example 14, N-((1r,3r)-3-(3-chloro-4-cyanophenoxy)-2,2,4,4-tetramethylcyclobutyl)-4-((22-((3-(2,6-dioxopiperidin-3-yl)-4-oxo-3,4-dihydrobenzo[d][1,2,3]triazin-5-yl)amino)-21-oxo-3,6,9,12,15-pentaoxa-20-azadocosyl)oxy)benzamide]	4020 nM	35.3%	–
